Laboratory results published in ChEMBL document CHEMBL5352395, “The discovery of novel antifungal phenylpyridines derivatives based on CYP53 binding model” (Eur J Med Chem, 2022).
Converted amounts (≈) assume the structure as drawn. The source made the active and inactive calls. The rule behind the calls is not given here.

Experiments:
[1] = system: Candida albicans; test: Antifungal activity against Candida albicans 17# assessed as reduction in fungal growth; assay type: functional
[2] = system: Candida albicans; test: Antifungal activity against Candida albicans 901 assessed as reduction in fungal growth; assay type: functional
[3] = system: Nakaseomyces glabratus; test: Antifungal activity against Candida glabrata ATCC 0001 assessed as reduction in fungal growth; assay type: functional
[4] = system: Candida albicans; test: Antifungal activity against Candida albicans ATCC 10231 assessed as reduction in fungal growth; assay type: functional
[5] = system: Aspergillus fumigatus; test: Antifungal activity against Aspergillus fumigatus KM8001 assessed as reduction in fungal growth; assay type: functional
[6] = system: Pichia kudriavzevii; test: Antifungal activity against Candida krusei ATCC 6258 assessed as reduction in fungal growth; assay type: functional
[7] = system: Candida albicans; test: Induction of apoptosis in Candida albicans ATCC SC5314 assessed as late apoptotic cells incubated for 24 hrs by Annexin V-FITC/PI staining based flow cytometry method (reference value: 1.22%); assay type: functional
[8] = system: Candida albicans; test: Antifungal activity against Candida albicans ATCC SC5314 infected in mouse assessed as reduction in fungal infection administered intraperitoneally on day 2,4,6,8 and 10 and measured after 12 days; assay type: functional, organism-based; details: route ip, time 12.0 day
[9] = system: Candida albicans; test: Antifungal activity against Candida albicans ATCC SC5314 infected in mouse assessed as disappearance of nuclear aggregation phenomenon administered intraperitoneally on day 2,4,6,8 and 10 and measured after 12 days by H and E/GMS staining based analysis; assay type: functional, organism-based; details: route ip, time 12.0 day
[10] = Inhibition of CYP53 in Candida albicans ATCC SC5314 assessed as 4-hydroxybenzoate level at 8 ug/ml incubated for 16 hrs by LC-MS analysis (Rvb=82.7%); assay type: ADME; design: scale not given: the % may be the effect or the level left; details: at 8 µg/mL
[11] = Toxicity in ip dosed mouse assessed as pathological damage in liver administered on day 2,4,6,8,10 and measured on day 12 by H and E staining based analysis; assay type: organism-based; details: in vivo, 288 h, time 12 day
[12] = Inhibition of CYP53 in Candida albicans ATCC SC5314 assessed as benzoate level at 8 ug/ml incubated for 16 hrs by LC-MS analysis (Rvb=11.4%); assay type: ADME; design: scale not given: the % may be the effect or the level left; details: at 8 µg/mL
[13] = Toxicity in ip dosed mouse assessed as pathological damage in lungs administered on day 2,4,6,8,10 and measured on day 12 by H and E staining based analysis; assay type: organism-based; details: in vivo, 288 h, time 12 day
[14] = system: Candida albicans; test: Induction of apoptosis in Candida albicans ATCC SC5314 assessed as mid apoptotic cells incubated for 24 hrs by Annexin V-FITC/PI staining based flow cytometry method (reference value: 1.03%); assay type: functional
[15] = system: Candida albicans; test: Induction of apoptosis in Candida albicans ATCC SC5314 assessed as live cells incubated for 24 hrs by Annexin V-FITC/PI staining based flow cytometry method (reference value: 92.69%); assay type: functional
[16] = system: Candida albicans; test: Antifungal activity against Candida albicans ATCC SC5314 assessed as reduction in fungal cell proliferation by measuring cell count (reference value: 235); assay type: functional
[17] = Toxicity in ip dosed mouse assessed as pathological damage in heart administered on day 2,4,6,8,10 and measured on day 12 by H and E staining based analysis; assay type: organism-based; details: in vivo, 288 h, time 12 day
[18] = Toxicity in ip dosed mouse assessed as pathological damage in spleen administered on day 2,4,6,8,10 and measured on day 12 by H and E staining based analysis; assay type: organism-based; details: in vivo, 288 h, time 12 day
[19] = Toxicity in ip dosed mouse assessed as pathological damage in kidneys administered on day 2,4,6,8,10 and measured on day 12 by H and E staining based analysis; assay type: organism-based; details: in vivo, 288 h, time 12 day
[20] = system: Candida albicans; test: Induction of mitochondrial membrane potential loss in Candida albicans ATCC SC5314 assessed as polarized cells at 1 uM/ml incubated for 24 hrs by JC-1 staining based flow cytometry analysis (reference value: 93.17%); assay type: functional
[21] = Toxicity in ip dosed mouse assessed as increase in body weight administered for 10 days; assay type: organism-based; details: in vivo, 240 h, time 10 day
[22] = Toxicity in ip dosed mouse assessed as ALT level in plasma administered on day 2,4,6,8 and 10 (reference value: 35.9 +/- 4.6 IU/L); assay type: organism-based; details: in vivo, 240 h, time 10 day
[23] = system: Candida albicans; test: Induction of apoptosis in Candida albicans ATCC SC5314 assessed as necrotic cells incubated for 24 hrs by Annexin V-FITC/PI staining based flow cytometry method (reference value: 5.36%); assay type: functional
[24] = Toxicity in ip dosed mouse assessed as blood urea nitrogen level in plasma administered on day 2,4,6,8 and 10 (reference value: 7.4 +/ -0.6 mmol/L); assay type: organism-based; details: in vivo, 240 h, time 10 day
[25] = Toxicity in ip dosed mouse assessed as AST level in plasma administered on day 2,4,6,8 and 10 (reference value: 60.3 +/- 5.4 IU/L); assay type: organism-based; details: in vivo, 240 h, time 10 day
[26] = system: Candida albicans; test: Antifungal activity against Candida albicans ATCC SC5314 infected in mouse assessed as recovery of regular cell distribution administered intraperitoneally on day 2,4,6,8 and 10 and measured after 12 days by H and E/GMS staining based analysis; assay type: functional, organism-based; details: route ip, time 12.0 day
[27] = Inhibition of CYP53 in Candida albicans ATCC SC5314 assessed as unknown sterol level at 8 ug/ml incubated for 16 hrs by LC-MS analysis (Rvb=5.9%); assay type: ADME; design: scale not given: the % may be the effect or the level left; details: at 8 µg/mL
[28] = system: Candida albicans; test: Antifungal activity against Candida albicans ATCC SC5314 infected in mouse assessed as reduction in fungal growth in infection region administered intraperitoneally on day 2,4,6,8 and 10 and measured after 12 days by H and E/GMS staining based analysis; assay type: functional, organism-based; details: route ip, time 12.0 day
[29] = system: Candida albicans; test: Induction of morphological changes in Candida albicans ATCC SC5314 assessed as reduction in cell wall thickness at 1 uM/ml incubated for 48 hrs by transmission electron microscopy; assay type: functional, organism-based
[30] = system: Candida albicans; test: Antifungal activity against Candida albicans ATCC SC5314 assessed as induction of ROS production by measuring increase in fluorescence intensity; assay type: functional, organism-based
[31] = system: Candida albicans; test: Induction of morphological changes in Candida albicans ATCC SC5314 assessed as rupture of cell membranes at 1 uM/ml incubated for 72 hrs by transmission electron microscopy; assay type: functional, organism-based
[32] = system: Candida albicans; test: Induction of morphological changes in Candida albicans ATCC SC5314 assessed as leakage of endogenous substances in fungal cells at 1 uM/ml incubated for 72 hrs by transmission electron microscopy; assay type: functional, organism-based
[33] = system: Candida albicans; test: Antifungal activity against Candida albicans ATCC SC5314 assessed as reduction in fungal cell proliferation by measuring cell count (reference value: 216); assay type: functional
[34] = system: Candida albicans; test: Induction of morphological changes in Candida albicans ATCC SC5314 assessed as increase in cell permeability at 1 uM/ml incubated for 48 hrs by transmission electron microscopy; assay type: functional, organism-based
[35] = system: Candida albicans; test: Induction of morphological changes in Candida albicans ATCC SC5314 assessed as appearance of cell wall and membrane remnants at 1 uM/ml incubated for 96 hrs by transmission electron microscopy; assay type: functional, organism-based
[36] = system: Candida albicans; test: Induction of morphological changes in Candida albicans ATCC SC5314 assessed as disappearance of marginal region of fungal cells at 1 uM/ml incubated for 48 hrs by transmission electron microscopy; assay type: functional, organism-based

Compound: COC(=O)c1ccc(C(=O)NC(C)C(=O)Nc2ccncc2)cc1 (stereo unspecified)
- MIC [1]: 4 µg/mL (≈ 12.2 µM)
- MIC [2]: 1 µg/mL (≈ 3.05 µM)
- MIC [3]: 2 µg/mL (≈ 6.11 µM)
- MIC [4]: 0.5 µg/mL (≈ 1.53 µM)
- MIC [5]: 4 µg/mL (≈ 12.2 µM)
- MIC [6]: 1 µg/mL (≈ 3.05 µM)

Compound: COC(=O)c1ccc(C(=O)NCC(=O)Nc2ccncc2)cc1
- MIC [1]: 2 µg/mL (≈ 6.38 µM)
- Activity [7]: 0.97%
- Activity [8]: Active
- Activity [9]: Active
- Activity [10]: 29.5%
- Activity [11]: Non-Toxic
- Activity [12]: 64.1%
- Activity [13]: Non-Toxic
- MIC [2]: 2 µg/mL (≈ 6.38 µM)
- MIC [3]: 1 µg/mL (≈ 3.19 µM)
- Activity [14]: 0.46%
- Activity [15]: 65.51%
- Activity [16]: 112
- Activity [17]: Non-Toxic
- Activity [18]: Non-Toxic
- Activity [19]: Non-Toxic
- Activity [20]: 65.59%
- Activity [21]: Toxic
- Activity [22]: 42.8 IU/L
- MIC [4]: 1 µg/mL (≈ 3.19 µM)
- Activity [23]: 33.06%
- Activity [24]: 6.6 mmol/L
- Activity [25]: 68.4 IU/L
- MIC [5]: 4 µg/mL (≈ 12.8 µM)
- Activity [26]: Active
- Activity [27]: 6.4%
- MIC [6]: 0.5 µg/mL (≈ 1.6 µM)
- Activity [28]: Active

Compound: CC1CCN(C(=O)c2ccc(C(=O)NCC(=O)Nc3ccncc3)cc2)CC1
- MIC [1]: 4 µg/mL (≈ 10.5 µM)
- MIC [2]: 4 µg/mL (≈ 10.5 µM)
- MIC [3]: 2 µg/mL (≈ 5.26 µM)
- MIC [4]: 1 µg/mL (≈ 2.63 µM)
- MIC [5]: 4 µg/mL (≈ 10.5 µM)
- MIC [6]: 0.5 µg/mL (≈ 1.31 µM)

Compound: CC1CCN(C(=O)/C=C/c2ccc(C(=O)NCC(=O)Nc3ccncc3)cc2)CC1
- MIC [1]: 8 µg/mL (≈ 19.7 µM)
- MIC [2]: 4 µg/mL (≈ 9.84 µM)
- MIC [3]: 1 µg/mL (≈ 2.46 µM)
- MIC [4]: 1 µg/mL (≈ 2.46 µM)
- MIC [5]: 8 µg/mL (≈ 19.7 µM)
- MIC [6]: 2 µg/mL (≈ 4.92 µM)

Compound: CC1CCN(C(=O)/C=C/c2ccc(C(=O)NC(C)C(=O)Nc3ccncc3)cc2)CC1 (stereo unspecified)
- MIC [1]: 8 µg/mL (≈ 19 µM)
- MIC [2]: 4 µg/mL (≈ 9.51 µM)
- MIC [3]: 4 µg/mL (≈ 9.51 µM)
- MIC [4]: 2 µg/mL (≈ 4.76 µM)
- MIC [5]: 4 µg/mL (≈ 9.51 µM)
- MIC [6]: 4 µg/mL (≈ 9.51 µM)

Compound: CCC(C)C(NC(=O)c1ccc(C(=O)N2CCC(C)CC2)cc1)C(=O)Nc1ccncc1 (stereo unspecified)
- MIC [1]: 4 µg/mL (≈ 9.16 µM)
- MIC [2]: 8 µg/mL (≈ 18.3 µM)
- MIC [3]: 2 µg/mL (≈ 4.58 µM)
- MIC [4]: 1 µg/mL (≈ 2.29 µM)
- MIC [5]: 8 µg/mL (≈ 18.3 µM)
- MIC [6]: 1 µg/mL (≈ 2.29 µM)

Compound: CCC(C)C(NC(=O)c1ccc(C(=O)OC)cc1)C(=O)Nc1ccncc1 (stereo unspecified)
- MIC [1]: 2 µg/mL (≈ 5.41 µM)
- MIC [2]: 4 µg/mL (≈ 10.8 µM)
- MIC [3]: 4 µg/mL (≈ 10.8 µM)
- MIC [4]: 4 µg/mL (≈ 10.8 µM)
- MIC [5]: > 16 µg/mL
- MIC [6]: 2 µg/mL (≈ 5.41 µM)

Compound: CCC(C)C(NC(=O)c1ccc(/C=C/C(=O)N2CCC(C)CC2)cc1)C(=O)Nc1ccncc1 (stereo unspecified)
- MIC [1]: 4 µg/mL (≈ 8.65 µM)
- MIC [2]: 8 µg/mL (≈ 17.3 µM)
- MIC [3]: 2 µg/mL (≈ 4.32 µM)
- MIC [4]: 2 µg/mL (≈ 4.32 µM)
- MIC [5]: > 16 µg/mL
- MIC [6]: 1 µg/mL (≈ 2.16 µM)

Compound: CC1CCN(C(=O)c2ccc(C(=O)NC(C)C(=O)Nc3ccncc3)cc2)CC1 (stereo unspecified)
- MIC [1]: 2 µg/mL (≈ 5.07 µM)
- Activity [7]: 0.91%
- Activity [8]: Active
- Activity [9]: Active
- Activity [10]: 23.3%
- Activity [29]: Active
- Activity [11]: Non-Toxic
- Activity [12]: 68.5%
- Activity [13]: Non-Toxic
- MIC [2]: 2 µg/mL (≈ 5.07 µM)
- MIC [3]: 0.5 µg/mL (≈ 1.27 µM)
- Activity [30]: Active
- Activity [31]: Active
- Activity [14]: 0.31%
- Activity [15]: 58.17%
- Activity [32]: Active
- Activity [17]: Non-Toxic
- Activity [33]: 123
- Activity [18]: Non-Toxic
- Activity [19]: Non-Toxic
- Activity [20]: 68.3%
- Activity [21]: Toxic
- Activity [22]: 47.4 IU/L
- MIC [4]: 0.5 µg/mL (≈ 1.27 µM)
- Activity [34]: Active
- Activity [23]: 40.61%
- Activity [24]: 6.1 mmol/L
- Activity [25]: 53.7 IU/L
- MIC [5]: 2 µg/mL (≈ 5.07 µM)
- Activity [26]: Active
- Activity [35]: Active
- Activity [36]: Active
- Activity [27]: 8.2%
- MIC [6]: 1 µg/mL (≈ 2.54 µM)
- Activity [28]: Active

Compound: OC(Cn1cncn1)(Cn1cncn1)c1ccc(F)cc1F [FLUCONAZOLE]
- MIC [1]: > 16 µg/mL
- MIC [2]: > 16 µg/mL
- MIC [3]: 0.5 µg/mL (≈ 1.63 µM)
- MIC [4]: 0.5 µg/mL (≈ 1.63 µM)
- MIC [5]: 4 µg/mL (≈ 13.1 µM)
- MIC [6]: 0.5 µg/mL (≈ 1.63 µM)
